The values below come from ChEMBL document CHEMBL4196115 (ACS Med Chem Lett, 2018).

Values after ≈ are worked out from the molar mass of the structure shown.

Data set [1] concerns the target T1, Muscarinic acetylcholine receptor M1 (Homo sapiens) (UniProt P11229).
T1 sequence (whole entry): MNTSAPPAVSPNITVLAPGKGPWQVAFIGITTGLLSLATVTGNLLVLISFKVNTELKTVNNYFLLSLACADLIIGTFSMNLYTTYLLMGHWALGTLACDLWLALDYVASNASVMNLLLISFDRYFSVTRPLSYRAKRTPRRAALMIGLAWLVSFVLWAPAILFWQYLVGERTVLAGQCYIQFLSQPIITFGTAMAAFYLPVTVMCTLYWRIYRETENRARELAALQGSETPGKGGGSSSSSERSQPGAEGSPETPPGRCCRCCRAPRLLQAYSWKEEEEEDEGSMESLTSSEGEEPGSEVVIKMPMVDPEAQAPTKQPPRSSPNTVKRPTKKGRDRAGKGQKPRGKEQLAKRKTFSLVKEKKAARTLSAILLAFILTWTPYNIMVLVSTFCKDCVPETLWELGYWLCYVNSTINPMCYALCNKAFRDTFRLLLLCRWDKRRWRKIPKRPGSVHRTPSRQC
Nature of the data set: Positive allosteric modulation of human muscarinic acetylcholine receptor M1 expressed in CHO cells assessed as increase in acetylcholine-induced calcium mobilization pretreated for 4 mins followed by acetylcholine addition and measured after 4 mins by Fluo-4-AM dye based FLIPR assay. The data set is classed as functional, cell-based.

A short description of data set [2]: Kinetic solubility of the compound at pH 2. Conditions: buffer, read-out: Kinetic_solubility; call rule not given here. The data set is classed as physicochemical.
A short description of data set [3]: Ratio of total drug level in cerebrospinal fluid to unbound plasma concentration in Sprague-Dawley rat at 10 mg/kg, po. The class given is ADME, organism-based, CSF/Plasma. The conditions noted are these: in vivo.
For data set [4], the target named is Voltage-gated inwardly rectifying potassium channel KCNH2 (Homo sapiens, UniProt Q12809).
The nature of data set [5]: Lipophilicity, log D of the compound by HPLC method. The data set is classed as physicochemical.
A short description of data set [6]: Kinetic solubility of the compound at pH 7. The data set is classed as physicochemical. Conditions: buffer, read-out: Kinetic_solubility.
Data set [7] can be described thus: Equilibrium solubility of the compound in fasted state simulated intestinal fluid using crystalline compound. The class given is physicochemical.
A short description of data set [8]: Equilibrium solubility of the compound in simulated gastric fluid using crystalline compound. The data set is classed as physicochemical.
In another data set the target is Cytochrome P450 3A4 (Homo sapiens, UniProt P08684). In words: Induction of CYP3A4 activity in human hepatocytes at 0.1 to 10 uM. The data set is classed as ADME, cell-based.
The target in data set [9] is T2, MDR1 (P-gp, ABCB1) (Homo sapiens, UniProt P08183). In words: Substrate activity at MDR1 (unknown origin) assessed as apparent permeability. The data set is classed as ADME. Conditions: not told.
Data set [10] is described as follows: Oral bioavailability in Mongrel dog at 3 mg/kg. The data set is classed as ADME, organism-based, Canis lupus familiaris. Conditions: in vivo.
A short description of data set [11]: Terminal half life in Sprague-Dawley rat at 10 mg/kg, po or 2 mg/kg, iv. The class given is ADME, organism-based. The conditions noted are these: in vivo, read-out: beta t1/2 (converted).
Data set [12] can be described thus: Oral bioavailability in rhesus monkey at 1 mg/kg. The class given is ADME, organism-based, Macaca mulatta. Conditions: in vivo.
The nature of data set [13]: Clearance in Mongrel dog at 3 mg/kg, po or 1 mg/kg, iv. The data set is classed as ADME, organism-based, Canis lupus familiaris. Conditions: in vivo.
Data set [14] in a line: Clearance in rhesus monkey at 1 mg/kg, po or 0.5 mg/kg, iv. The class given is ADME, organism-based, Macaca mulatta. Conditions: in vivo.
Data set [15] in a line: Inhibition of PDE4 (unknown origin). On the set-up: species or system Homo sapiens.
A short description of data set [16]: Volume of distribution at steady state in Mongrel dog at 3 mg/kg, po or 1 mg/kg, iv. The class given is ADME, organism-based, Canis lupus familiaris. Conditions: in vivo, read-out: Vdss.
Data set [17] can be described thus: Terminal half life in rhesus monkey at 1 mg/kg, po or 0.5 mg/kg, iv. The class given is ADME, organism-based, Macaca mulatta. The conditions noted are these: in vivo, read-out: beta t1/2 (converted).
Data set [18] can be described thus: Volume of distribution at steady state in Sprague-Dawley rat at 10 mg/kg, po or 2 mg/kg, iv. The data set is classed as ADME, organism-based. The conditions noted are these: in vivo, read-out: Vdss.
The nature of data set [19]: Terminal half life in Mongrel dog at 3 mg/kg, po or 1 mg/kg, iv. The class given is ADME, organism-based, Canis lupus familiaris. The conditions noted are these: in vivo, read-out: beta t1/2 (converted).
A further data set has as its system Hepatocyte. Nature of the data set: Induction of CYP3A4 mRNA expression in human hepatocytes at 0.1 to 10 uM. The data set is classed as ADME, cell-based.
The nature of data set [20]: Clearance in Sprague-Dawley rat at 10 mg/kg, po or 2 mg/kg, iv. The data set is classed as ADME, organism-based. The conditions noted are these: in vivo.
The target of a further data set is Cytochrome P450 2C9 (Homo sapiens, UniProt P11712). Nature of the data set: Competitive reversible inhibition of CYP2C9 (unknown origin). The data set is classed as ADME.
Data set [21] in a line: Intrinsic clearance in human microsomes. The data set is classed as ADME, Microsome.
Data set [22] can be described thus: Oral bioavailability in Sprague-Dawley rat at 10 mg/kg. The class given is ADME, organism-based. The conditions noted are these: in vivo.
The nature of data set [23]: Equilibrium solubility of the compound at pH 8 to 10. The class given is physicochemical. Conditions: buffer.
Data set [24] addresses T3, Polyunsaturated fatty acid 5-lipoxygenase (Homo sapiens, UniProt P09917).
T3 sequence (P09917 whole entry): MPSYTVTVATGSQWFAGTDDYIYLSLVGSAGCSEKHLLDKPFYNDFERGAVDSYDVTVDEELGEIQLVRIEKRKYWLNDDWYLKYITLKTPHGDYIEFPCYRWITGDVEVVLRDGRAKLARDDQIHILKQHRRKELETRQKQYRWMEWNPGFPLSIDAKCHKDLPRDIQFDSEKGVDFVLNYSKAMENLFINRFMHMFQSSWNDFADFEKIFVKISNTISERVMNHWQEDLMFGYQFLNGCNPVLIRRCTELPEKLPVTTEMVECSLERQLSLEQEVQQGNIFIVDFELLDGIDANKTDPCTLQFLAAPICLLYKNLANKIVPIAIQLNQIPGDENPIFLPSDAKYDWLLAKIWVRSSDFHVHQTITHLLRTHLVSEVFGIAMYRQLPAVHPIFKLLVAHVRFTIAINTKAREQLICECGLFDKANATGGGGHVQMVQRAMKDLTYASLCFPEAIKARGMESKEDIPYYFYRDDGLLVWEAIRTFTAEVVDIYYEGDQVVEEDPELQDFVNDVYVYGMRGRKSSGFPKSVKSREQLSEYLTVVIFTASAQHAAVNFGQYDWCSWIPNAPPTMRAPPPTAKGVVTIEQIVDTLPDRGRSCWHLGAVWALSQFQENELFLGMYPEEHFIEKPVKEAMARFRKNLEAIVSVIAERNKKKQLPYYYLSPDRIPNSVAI
Nature of the data set: Inhibition of recombinant human 5-LOX using arachidonic acid as substrate measured after 5 mins by fluorescence assay.

Data set [25] is described as follows: Volume of distribution at steady state in rhesus monkey at 1 mg/kg, po or 0.5 mg/kg, iv. The conditions noted are these: in vivo, read-out: Vdss. The class given is ADME, organism-based, Macaca mulatta.
Data set [26] in a line: Equilibrium solubility of the compound at pH <4. The class given is physicochemical.
Data set [27] concerns the target T2, MDR1 (P-gp, ABCB1). In words: Substrate activity at MDR1 (unknown origin) assessed as efflux ratio of permeability from basolateral to apical side over apical to basolateral side. The data set is classed as ADME. The conditions noted are these: not told.

Voltage-gated inwardly rectifying potassium channel KCNH2, sequence (Q12809 whole entry): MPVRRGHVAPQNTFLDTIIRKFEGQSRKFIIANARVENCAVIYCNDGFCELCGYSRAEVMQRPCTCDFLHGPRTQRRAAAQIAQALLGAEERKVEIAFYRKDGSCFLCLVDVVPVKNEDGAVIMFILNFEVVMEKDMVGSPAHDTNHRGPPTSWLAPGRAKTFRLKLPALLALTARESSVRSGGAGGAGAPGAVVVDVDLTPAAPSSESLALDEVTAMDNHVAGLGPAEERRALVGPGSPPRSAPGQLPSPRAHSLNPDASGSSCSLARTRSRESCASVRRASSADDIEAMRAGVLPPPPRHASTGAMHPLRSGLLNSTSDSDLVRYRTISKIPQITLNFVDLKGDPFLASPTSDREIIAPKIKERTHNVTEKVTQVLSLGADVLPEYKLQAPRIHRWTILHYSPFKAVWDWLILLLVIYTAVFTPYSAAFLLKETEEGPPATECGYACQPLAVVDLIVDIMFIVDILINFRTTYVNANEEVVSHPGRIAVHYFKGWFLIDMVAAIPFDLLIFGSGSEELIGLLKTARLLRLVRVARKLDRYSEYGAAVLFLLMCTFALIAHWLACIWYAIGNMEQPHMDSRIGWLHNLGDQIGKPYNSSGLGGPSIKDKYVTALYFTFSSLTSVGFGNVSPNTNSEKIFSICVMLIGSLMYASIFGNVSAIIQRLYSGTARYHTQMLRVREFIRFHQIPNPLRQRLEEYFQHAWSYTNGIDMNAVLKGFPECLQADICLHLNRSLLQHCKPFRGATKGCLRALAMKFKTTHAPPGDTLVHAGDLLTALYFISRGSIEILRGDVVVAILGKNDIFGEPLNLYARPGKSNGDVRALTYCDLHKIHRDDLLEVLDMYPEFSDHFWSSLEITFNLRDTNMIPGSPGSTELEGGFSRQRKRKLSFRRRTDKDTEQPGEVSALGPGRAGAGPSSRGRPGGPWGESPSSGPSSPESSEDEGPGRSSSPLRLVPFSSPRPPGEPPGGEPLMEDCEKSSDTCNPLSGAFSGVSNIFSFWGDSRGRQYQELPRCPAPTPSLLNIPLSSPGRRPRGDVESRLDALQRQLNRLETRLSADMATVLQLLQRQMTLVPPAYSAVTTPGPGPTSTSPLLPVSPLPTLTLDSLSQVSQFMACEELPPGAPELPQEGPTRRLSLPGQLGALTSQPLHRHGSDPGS
T2 sequence (P08183 whole entry): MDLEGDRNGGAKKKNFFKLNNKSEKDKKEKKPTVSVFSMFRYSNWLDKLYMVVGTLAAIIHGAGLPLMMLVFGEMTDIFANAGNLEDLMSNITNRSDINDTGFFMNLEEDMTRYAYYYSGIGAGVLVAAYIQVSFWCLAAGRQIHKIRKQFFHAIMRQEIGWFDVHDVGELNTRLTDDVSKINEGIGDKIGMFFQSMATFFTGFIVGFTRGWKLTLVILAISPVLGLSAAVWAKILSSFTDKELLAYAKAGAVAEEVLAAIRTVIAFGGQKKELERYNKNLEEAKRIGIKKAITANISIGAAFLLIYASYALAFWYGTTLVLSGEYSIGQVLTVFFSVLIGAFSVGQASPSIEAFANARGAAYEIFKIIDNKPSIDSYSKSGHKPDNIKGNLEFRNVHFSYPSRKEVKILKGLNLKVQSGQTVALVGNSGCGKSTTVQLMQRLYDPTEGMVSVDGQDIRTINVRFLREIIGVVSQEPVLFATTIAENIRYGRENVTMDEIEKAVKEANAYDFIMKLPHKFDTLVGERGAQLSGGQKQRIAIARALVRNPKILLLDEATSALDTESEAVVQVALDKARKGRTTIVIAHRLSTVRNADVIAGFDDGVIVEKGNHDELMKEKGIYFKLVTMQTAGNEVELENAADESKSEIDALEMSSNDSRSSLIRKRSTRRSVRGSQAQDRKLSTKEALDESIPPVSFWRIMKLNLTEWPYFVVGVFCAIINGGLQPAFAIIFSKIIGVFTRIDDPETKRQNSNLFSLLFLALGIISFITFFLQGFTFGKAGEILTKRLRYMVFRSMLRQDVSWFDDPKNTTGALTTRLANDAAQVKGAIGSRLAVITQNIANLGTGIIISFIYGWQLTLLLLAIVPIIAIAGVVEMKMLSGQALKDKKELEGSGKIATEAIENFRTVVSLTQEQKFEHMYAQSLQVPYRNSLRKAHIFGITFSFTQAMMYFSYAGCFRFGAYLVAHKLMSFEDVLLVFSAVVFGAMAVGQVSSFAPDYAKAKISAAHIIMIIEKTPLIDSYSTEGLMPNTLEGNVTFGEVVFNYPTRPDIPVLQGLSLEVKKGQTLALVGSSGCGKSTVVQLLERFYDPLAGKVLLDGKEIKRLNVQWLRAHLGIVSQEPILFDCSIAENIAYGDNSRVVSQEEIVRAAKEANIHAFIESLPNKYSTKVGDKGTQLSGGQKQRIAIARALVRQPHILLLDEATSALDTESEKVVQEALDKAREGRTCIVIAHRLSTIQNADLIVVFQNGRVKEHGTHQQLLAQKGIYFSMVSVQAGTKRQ
Cytochrome P450 2C9, sequence (P11712 whole entry): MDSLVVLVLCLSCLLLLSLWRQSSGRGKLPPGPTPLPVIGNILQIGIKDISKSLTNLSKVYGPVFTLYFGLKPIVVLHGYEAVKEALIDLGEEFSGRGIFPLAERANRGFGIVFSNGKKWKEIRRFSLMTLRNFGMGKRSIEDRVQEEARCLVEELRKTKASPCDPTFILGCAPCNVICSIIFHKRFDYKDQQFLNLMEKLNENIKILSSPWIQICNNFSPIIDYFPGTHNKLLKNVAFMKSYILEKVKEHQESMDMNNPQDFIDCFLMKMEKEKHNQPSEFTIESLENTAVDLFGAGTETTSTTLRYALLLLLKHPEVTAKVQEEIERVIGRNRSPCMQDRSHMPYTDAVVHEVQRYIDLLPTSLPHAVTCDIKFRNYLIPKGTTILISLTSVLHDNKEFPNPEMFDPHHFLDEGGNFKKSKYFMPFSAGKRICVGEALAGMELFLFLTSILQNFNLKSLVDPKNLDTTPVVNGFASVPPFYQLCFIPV
Cytochrome P450 3A4, sequence (P08684 whole entry): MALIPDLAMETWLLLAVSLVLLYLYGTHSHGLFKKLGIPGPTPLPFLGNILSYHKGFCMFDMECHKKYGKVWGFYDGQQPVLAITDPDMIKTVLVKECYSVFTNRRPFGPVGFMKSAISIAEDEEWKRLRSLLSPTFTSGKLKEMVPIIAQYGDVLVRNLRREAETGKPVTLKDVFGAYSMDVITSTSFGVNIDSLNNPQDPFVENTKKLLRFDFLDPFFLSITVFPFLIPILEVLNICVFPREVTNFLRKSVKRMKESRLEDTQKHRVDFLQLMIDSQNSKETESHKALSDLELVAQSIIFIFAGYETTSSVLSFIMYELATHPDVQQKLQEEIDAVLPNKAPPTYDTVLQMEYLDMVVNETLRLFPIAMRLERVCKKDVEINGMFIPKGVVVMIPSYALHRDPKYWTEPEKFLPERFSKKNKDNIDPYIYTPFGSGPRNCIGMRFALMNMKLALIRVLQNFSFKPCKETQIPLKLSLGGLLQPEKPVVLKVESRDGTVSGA

Regarding `O=c1c2cc(Cc3cccnc3)c3ccccc3c2ncn1[C@H]1CCCC[C@@H]1O` (relative stereo), the IP in data set [1] was found to be 0.042 µM. The solubility kinetic in data set [2] is 181 µM (≈ 69.8 µg/mL); in data set [6], 34 µM (≈ 13.1 µg/mL). Also, the Ratio in [3] was 0.5. In data set [4], the IC50 (in general, the concentration that inhibits the measured activity by half) stood at 12 µM. Further, in [5], the log distribution coefficient (logD) – broadly, lipophilicity at a set pH, counting ionised and neutral species – stood at 2.4.

As to `COc1ccc(Cn2cc3c(=O)n(-c4ccccc4)nc-3c3ccccc32)cc1`, the IP in data set [1] turned out to be 8.9 µM.

Consider `COc1ccc(Cn2cc3c(=O)onc-3c3ccccc32)cc1`, for which, in [1], the IP is above 100 µM.

For `COc1ccc(Cc2cc3c(=O)n([C@H]4CCCC[C@@H]4O)cnc3c3ccccc23)cn1`, the IP in [1] was found to be 0.018 µM. Moreover, the solubility kinetic was 71 µM (≈ 29.5 µg/mL) in data set [2] and below 3 µM in data set [6]. Moreover, the Ratio in [3] is given as 1. The compound also had an IC50 in [4] of 6.4 µM. Also, the logD in data set [5] was 3.

`Cc1ccc(Cc2cc3c(=O)n([C@H]4CCCC[C@@H]4O)cnc3c3ccccc23)cn1.O=C(O)/C=C/C(=O)O`: the values for the solubility (thermodynamic) in data set [7] and in data set [8] were 40 µg/mL and 2300 µg/mL, respectively.

Consider `COc1ccc(Cc2cc3c(c4ccccc24)CN([C@H]2CCCC[C@@H]2O)C3=O)cc1`, for which the IP in [1] was found to be 0.052 µM.

Turning to `COc1ccc(Cn2cc(C(=O)O)c(=O)c3ccccc32)cc1`, the IP in data set [1] amounted to 0.66 µM.

As for `Cc1ccc(Cc2cc3c(=O)n([C@H]4CCCC[C@@H]4O)cnc3c3ccccc23)cn1` [MK-7622], the Activity result at Cytochrome P450 3A4 and in the data set on Hepatocyte was “Not Active” throughout. Also, the Papp – broadly, the rate of passage across a membrane or cell layer, normalised by area and donor concentration – at MDR1 (P-gp, ABCB1) [9] came out at 33 ×10⁻⁶ cm/s. Further, the bioavailability (in general, dose-corrected exposure relative to a reference, in per cent) in [10] is 76%; in data set [12], 40%; in data set [22], 56%. Moreover, the results for the half-life in [11], in [17] and in data set [19] were 1.3 h, 1.8 h and 8.7 h, respectively. Moreover, the solubility kinetic in [2] was found to be 191 µM (≈ 76.3 µg/mL); in data set [6], 17 µM (≈ 6.79 µg/mL). Besides, the values for the clearance in data set [13], in data set [14] and in [20] were 4.5 mL/min/kg, 7.6 mL/min/kg and 18.9 mL/min/kg, respectively. Further, the figures for the IC50 (in [15]; at Cytochrome P450 2C9; in data set [24]) were 2.1 µM, 13.3 µM and 4.4 µM, respectively. The Vd in data set [16] was found to be 2.4 L/kg; in data set [18], 0.94 L/kg; in [25], 1.2 L/kg. In data set [5], this compound gave a logD of 2.6. The intrinsic clearance (CLint scaled) – broadly, a measure of how fast metabolising enzymes remove a compound, apart from limits set by blood flow – in data set [21] turned out to be 15 mL/min/kg. For the same compound, the solubility (thermodynamic) (in general, the concentration in solution at equilibrium with solid) in data set [23] is below 1 µg/mL; in [26], 6000 to 9000 µg/mL (≈ 15 to 22.5 mM).

As to `COc1ccc(Cn2cc3c(=O)n(-c4ccccc4F)nc-3c3ccccc32)cc1`, the IP in data set [1] amounted to 0.41 µM.

As for `COc1ccc(Cc2cc3c(=O)n(-c4ccccc4F)cnc3c3ccccc23)cc1`, in data set [1], the IP amounted to 0.82 µM.

Consider `COc1ccc(Cc2cc3c(=O)n([C@H]4CCCC[C@@H]4O)cnc3c3ccccc23)cc1`, for which the IP in data set [1] turned out to be 0.22 µM.

For `COc1ccc(Cn2cc3c(=O)[nH]nc-3c3ccccc32)cc1`, in [1], the IP is 57 µM.

As for `O=c1c2cc(Cc3ccc(Cl)nc3)c3ccccc3c2ncn1[C@H]1CCCC[C@@H]1O`, at MDR1 (P-gp, ABCB1) [27], the efflux ratio – broadly, the permeability from basolateral to apical divided by that in the opposite direction, in the common usage – was 1.1. The IP in data set [1] lay in the range of 0.013 to 0.015 µM. Moreover, the solubility kinetic in data set [2] and in [6] was below 2 µM throughout. Moreover, the Ratio in data set [3] is on record as 0.9. Moreover, in [4], the IC50 amounted to 13 µM. This compound gave a logD in data set [5] of 3.1.

Regarding `CSc1ccc(Cc2cc3c(=O)n([C@H]4CCCC[C@@H]4O)cnc3c3ccccc23)cn1`, the IP in data set [1] was 0.021 µM. Moreover, the solubility kinetic was 102 µM (≈ 44 µg/mL) in [2] and below 2 µM in data set [6]. The compound further showed an IC50 in data set [4] of 7.5 µM. The logD in data set [5] was found to be 3.2.

Turning to `COc1ccc(Cc2cc3c(=O)n(-c4ccccc4F)ccc3c3ccccc23)cc1`, in [1], the IP turned out to be 3.3 µM.
